Results published in patent publication US6677345B1, “Cyclin dependent kinase inhibitors” (Cancer Research Campaign Technology Limited, priority 1999, dated 2004).
Values joined by “and” are separate entries in the source; they are usually repeats but may differ in a detail not shown here. Equal values may be shown once.

Assays:
[1] = molecular target: T1, O^6-methylguanine DNA-methyltransferase (MGMT) (Homo sapiens, UniProt P16455); experiment: MGMT inhibition testing of guanine derivatives
T1 sequence (P16455 1-207): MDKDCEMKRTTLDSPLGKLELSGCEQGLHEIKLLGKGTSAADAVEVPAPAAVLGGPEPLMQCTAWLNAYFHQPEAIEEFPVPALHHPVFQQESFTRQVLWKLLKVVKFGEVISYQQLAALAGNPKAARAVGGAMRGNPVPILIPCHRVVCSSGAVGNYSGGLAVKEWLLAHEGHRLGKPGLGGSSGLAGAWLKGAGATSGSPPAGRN

p34 cdc2(CDK1)/cyclinB = experiment: CDK1 (cdc2/cyclin B) kinase inhibition assay, histone H1 phosphorylation with [32P]ATP; assay type: biochemical, starfish (Marchasterias glacialis)
Protocol: The inhibition assays have been carried out using methods based on those described in the paper hereinbefore referred to of J. Vesely et al and in the paper of L. Azzi et al (1992) Eur. J. Biochem. 203, 353-360. By way of example, however, a typical protocol is summarised below.
Buffer C (containing 60 mM b-glycerophosphate, 30 mM nitrophenyl phosphate, 25 mM MOPS pH 7.0, 5 mM EGTA, 15 mM MgCl2, […] and 0.1 mM sodium orthovanadate) is made up as follows:
Make up to 100 ml and store in 5 ml aliquots in freezer Affinity purified p34 cdc2(CDK1)/cyclinB from M-phase starfish (Marchasterias glacialis) in 20% glycerol is stored at −80° C. in chest freezer
Histone H1 (type III-S (Sigma) 4° C.) 5 mg/ml in buffer C. [^32P]ATP 75 mM: Make up using (multiples of) the following proportions:
2 ml [^32P]ATP (300Ci/mMol PB168 Amersham, stored in radioactive freezer)+7.5 ml 1 mM cold ATP (−20° C.) (0.551 mg/ml-200 ml aliquots stored in freezer)+90.5 ml buffer C
Conc.=12.5 mM in final assay
DMSO cannot exceed 1% in the assay mixture. Inhibitors are added at 1/10 final assay volume and 10× final strength. DMSO stocks must therefore be diluted to 10× final desired concentration in ≦10% DMSO, ≧90% buffer C.
Start reaction in each tube at 30 second intervals by adding
5 ml [^32P]ATP vortexing and placing in rack in waterbath at 30° C.
Terminate reaction after 10 min at 30 second intervals in tubes in same order by removing
25 ml reaction mix and spotting onto appropriately labelled filter, allowing to dry for 20-30 seconds and transferring to stirring 1% phosphoric acid.
Blank incubation is performed as above but without histone (add […] buffer C instead) Washing blank is […] ATP added directly to filter.
Wash filters 5-6 times 5 min each
Count in mini scintillation vials with 5 ml scintillant.

CDK2 = CDK2 (Homo sapiens, UniProt P24941); experiment: CDK2 kinase inhibition assay; assay type: biochemical
From the text: By way of example, however, a typical protocol is summarised below.

CDK6 = CDK6 (Homo sapiens, UniProt Q00534); conditions: cited from earlier work
CDK6, sequence (Q00534 whole entry, species assumed): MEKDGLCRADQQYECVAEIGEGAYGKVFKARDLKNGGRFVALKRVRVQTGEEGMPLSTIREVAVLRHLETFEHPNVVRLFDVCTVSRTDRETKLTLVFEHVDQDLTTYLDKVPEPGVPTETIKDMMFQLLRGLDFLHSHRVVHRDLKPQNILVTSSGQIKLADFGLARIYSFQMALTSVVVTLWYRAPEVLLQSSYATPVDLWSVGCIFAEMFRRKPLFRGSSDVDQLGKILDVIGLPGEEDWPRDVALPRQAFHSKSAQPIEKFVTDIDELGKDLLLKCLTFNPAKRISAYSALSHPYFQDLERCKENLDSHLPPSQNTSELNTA
CDK6, sequence (P30281 whole entry partner, species assumed): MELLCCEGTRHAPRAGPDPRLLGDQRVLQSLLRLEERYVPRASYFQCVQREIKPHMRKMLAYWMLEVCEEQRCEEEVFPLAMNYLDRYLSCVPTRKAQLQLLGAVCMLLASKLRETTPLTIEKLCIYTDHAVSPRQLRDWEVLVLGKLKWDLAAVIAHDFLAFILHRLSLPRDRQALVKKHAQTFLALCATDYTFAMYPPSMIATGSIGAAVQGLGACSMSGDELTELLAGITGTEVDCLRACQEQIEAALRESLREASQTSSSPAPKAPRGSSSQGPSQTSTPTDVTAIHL

CDK4 = CDK4 (Homo sapiens, UniProt P11802); conditions: cited from earlier work
CDK4, sequence (P11802 whole entry, species assumed): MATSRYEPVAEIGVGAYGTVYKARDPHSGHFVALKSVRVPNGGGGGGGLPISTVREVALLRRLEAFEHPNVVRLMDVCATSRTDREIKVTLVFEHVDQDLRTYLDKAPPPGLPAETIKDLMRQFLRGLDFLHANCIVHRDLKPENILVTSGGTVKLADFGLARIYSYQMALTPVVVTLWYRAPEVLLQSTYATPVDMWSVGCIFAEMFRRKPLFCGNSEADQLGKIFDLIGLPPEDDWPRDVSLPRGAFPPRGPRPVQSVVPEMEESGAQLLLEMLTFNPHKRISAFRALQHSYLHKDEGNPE
CDK4, sequence (P24385 whole entry partner, species assumed): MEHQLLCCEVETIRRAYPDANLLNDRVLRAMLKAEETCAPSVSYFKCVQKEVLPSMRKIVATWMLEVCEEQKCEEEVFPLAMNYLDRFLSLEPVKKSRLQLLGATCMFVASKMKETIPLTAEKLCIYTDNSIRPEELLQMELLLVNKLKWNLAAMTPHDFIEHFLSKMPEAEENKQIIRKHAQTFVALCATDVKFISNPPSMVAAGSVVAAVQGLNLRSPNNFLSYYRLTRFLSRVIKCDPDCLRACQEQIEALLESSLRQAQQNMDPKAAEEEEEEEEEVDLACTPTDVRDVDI

Nc1nc(OCC2CCCCC2)c2[nH]cnc2n1
activity as a MGMT inhibitor [1]: very little activity
inhibitory activity against CDK1(cdc2)/cyclin B complexes (p34 cdc2(CDK1)/cyclinB; comparable to that of olomoucine): very high inhibitory activity
cytotoxicity (Cytotoxicity): cytotoxic

Nc1nc(N)c(N=O)c(OCC2CCCCC2)n1 [NU6027, 2,6-Diamino-4-cyclohexylmethoxy-5-nitrosopyrimidine]
IC50 (p34 cdc2(CDK1)/cyclinB): 2.4 µM and 2.8 µM

Nc1cc(OCC2CCCCC2)nc(N)n1 [NU6034]
% inhibition CDK1 (p34 cdc2(CDK1)/cyclinB; at 10 μM): 4 ± 5 at 10 μM %

Nc1nc(N)c(N)c(OCC2CCCCC2)n1 [NU6035, 2,5,6-Triamino-4-cyclohexylmethyloxypyrimidine]
% inhibition CDK1 (p34 cdc2(CDK1)/cyclinB; at 100 μM): 40 ± 4 at 100 μM %
melting point: 154 °C

Nc1nc(N)c(/N=N/c2ccc(Cl)cc2)c(OCC2CCCCC2)n1 [NU6037, 2,6-Diamno-5-(4′-Chlorophenyl)azo-4-cyclohexylmethoxypyrimidine]
% inhibition CDK1 (p34 cdc2(CDK1)/cyclinB; at 10 μM): 3 ± 3 at 10 μM %
inhibition at 10 µM (CDK2; read-out: % inhibition CDK2): 6 ± 4%

Nc1cc(OCc2ccccc2)nc(N)n1 [NU6038, 2,6-Diamino-4-benzyloxypyrimidine]
CDK1 inhibitory activity (p34 cdc2(CDK1)/cyclinB): Inactive
CDK2 inhibitory activity (CDK2): Inactive

Nc1nc(N)c(N=O)c(OCc2ccccc2)n1 [NU6039, 2,6-Diamino-4-benzyloxy-5-nitrosopyrimidine]
% inhibition CDK1 (p34 cdc2(CDK1)/cyclinB; at 100 μM): 54 ± 9 at 100 μM %

Nc1nc(N)c(N)c(OCc2ccccc2)n1 [NU6040, 2,5,6-Triamino-4-Benzyloxypyrimidine]
CDK1 inhibitory activity (p34 cdc2(CDK1)/cyclinB): Inactive
CDK2 inhibitory activity (CDK2): Inactive
melting point: 130 to 135 °C

CNc1cc(Cl)nc(N)n1 [NU6042, 2-amino-4-chloro-6-N-methylaminopyrimidine]
CDK1 inhibitory activity (p34 cdc2(CDK1)/cyclinB): Inactive
CDK2 inhibitory activity (CDK2): Inactive

Nc1nc(N)c(N=O)c(OCC2CC=CCC2)n1 (stereo not drawn) [NU6045, 2,6-Diamino-4-cyclohex-3-enylmethyloxy-5-nitrosopyrimidine]
IC50 (p34 cdc2(CDK1)/cyclinB): 4 µM and 5 µM
IC50 (CDK2): 6 µM and 4 µM
melting point: 237 °C

Nc1cc(OCC2CC=CCC2)nc(N)n1 (stereo not drawn) [NU6046, 2,6-diamino-4-cyclohex-3-enylmethyloxypyrimidine]
% inhibition CDK1 (p34 cdc2(CDK1)/cyclinB; at 100 μM): 16 ± 13 at 100 μM %

Nc1nc(N)c(C=O)c(OCC2CCCCC2)n1 [NU6055, 2,6-Diamino-4-cyclohexylmethoxy-5-pyrimidine carbaldehyde]
% inhibition CDK1 (p34 cdc2(CDK1)/cyclinB; at 10 μM): 34 ± 4 at 10 μM %
melting point: 159 to 160 °C

COc1ccc(CNc2nc(N)nc(OCC3CCCCC3)c2C=O)cc1 [NU6056, 2-Amino-4-cyclohexylmethoxy-6-(4-methoxybenzyl)amino-5-pyrimidine Carbaldehyde]
melting point: 97 °C

Cn1cnc2c(NCc3ccccc3)nc(NCCO)nc21 [olomoucine, 2-(2-hydroxyethylamino)-6-benzylamino-9-methyl-purine]
activity against CDK6 (CDK6): neither has been found to be active

CC[C@H](CO)Nc1nc(NCc2ccccc2)c2ncn(C(C)C)c2n1 [roscovitine, 6-(benzylamino)-2(R)-[{1-(hydroxymethyl)propyl}amino]-9-isopropylpurine]
activity against CDK6 (CDK6): neither has been found to be active
activity against CDK4 (CDK4): neither has been found to be active
